Data: PMC10489980, “Design of Potent and Salt-Insensitive Antimicrobial Branched Peptides” (Polymers, 2023)
Positions of bridges follow the written chain, without caps; N, C: chain ends. Residues, ends and D or L forms follow the SMILES beside them. Chains are numbered I, II in the order given. *: point of attachment. Fmoc = O=C(OCC1c2ccccc2-c2ccccc21)*

Tests used:
Format in all cases: cell-based
[1] = tested on: Micrococcus luteus ATCC 49,732; settings: ATCC 49, 3 h
Description: (§1) Ten organisms obtained from the American Type Culture Collection (ATCC; Rockville, MD) were used for antimicrobial assays. Four Gram-negative bacteria included Escherichia coli ATCC 25922, Pseudomonas aeruginosa ATCC 27853, Klebsiella oxytoca ATCC 49131, and Proteus vulgaris ATCC 49132. The three Gram-positive bacteria were Staphylococcus aureus 29213, Micrococcus luteus ATCC 49,732, and Enterococcus faecalis ATCC 29212. The three fungi were Candida albicans ATCC 37092, Candida kefyr ATCC 37095, and Candida tropicalis ATCC 37097. The clinical isolates were obtained from Singapore General Hospital (SGH). They are Enterococcus faecium, Staphylococcus aureus, Klebsiella pneumoniae, Acinetobacter baumannii, Pseudomonas aeruginosa, and Enterobacter species. The strains were incubated in trypticase soy broth (TSB), which was prepared in double distilled water and autoclaved for sterilization. TSB was purchased from Becton-Dickinson (Cockeysville, MD, USA).
(§2) Antimicrobial Assays. A sensitive and reproducible two-stage radial diffusion antimicrobial assay of Lehrer et al. was employed. A 1–4 × 10^6 colony-forming unit/mL of the test organism was mixed with 10 mL of molten underlay gel solution and poured into Petri dishes to form a uniform layer. The gel solution consisted of 10 mM sodium phosphate buffer, 0.03% TSB, and 0.02% Tween-20, with the addition of 100 mM NaCl in the case of high-salt conditions. Upon gel solidification, gel wells were made by a 3-mm diameter template in an evenly spaced array. A 5 µL aliquot of a serial half-log dilution of test peptides at seven concentrations was added to each well after removal of gel plugs. The dishes were incubated at 37 °C for 3 h to allow peptide diffusion into the underlay gels. Gels were overlaid with 10 mL of 1% agarose in 6% TSB (wt/vol). After additional incubation at 37 °C for 16–24 h, the diameter of the clear zone surrounding the wells (colony-free) was measured under a microscope. Antimicrobial activities were expressed in units (0.1 mm = 1 unit), and the MICs (in µM) were determined from the x-intercepts of the dose-response curves. Experiments were performed in triplicates.

Candida kefyr ATCC 37095 = settings: ATCC 37095, 3 h
Description: as §1, §2

[2] = tested on: Candida tropicalis ATCC 37097; settings: ATCC 37097, 3 h
Description: as §1, §2

[3] = tested on: Staphylococcus aureus 29213; settings: 29213, 3 h
Description: as §1, §2

[4] = tested on: Candida albicans ATCC 37092; settings: ATCC 37092, 3 h
Description: as §1, §2

[5] = tested on: Proteus vulgaris ATCC 49132; settings: ATCC 49132, 3 h
Description: as §1, §2

[6] = tested on: Klebsiella oxytoca ATCC 49131; settings: ATCC 49131, 3 h
Description: as §1, §2

[7] = tested on: Enterococcus faecalis ATCC 29212; settings: ATCC 29212, 3 h
Description: as §1, §2

[8] = tested on: Pseudomonas aeruginosa ATCC 27853; settings: ATCC 27853, 3 h
Description: as §1, §2

[9] = tested on: Escherichia coli ATCC 25922; settings: ATCC 25922, 3 h
Description: as §1, §2

SMILES	MIC, M. luteus, H-Salt [1] [µM]	MIC, M. luteus, L-Salt [1] [µM]	MIC, C. kefyr, H-Salt (Candida kefyr ATCC 37095) [µM]	MIC, C. kefyr, L-Salt (Candida kefyr ATCC 37095) [µM]	MIC, C. tropicalis, H-Salt [2] [µM]	MIC, C. tropicalis, L-Salt [2] [µM]	MIC, S. aureus, H-Salt [3] [µM]	MIC, S. aureus, L-Salt [3] [µM]	MIC, C. albicans, H-Salt [4] [µM]	MIC, C. albicans, L-Salt [4] [µM]	MIC, P. vulgaris, H-Salt [5] [µM]	MIC, P. vulgaris, L-Salt [5] [µM]	MIC, K. oxytoca, H-Salt [6] [µM]	MIC, K. oxytoca, L-Salt [6] [µM]	MIC, E. faecalis, H-Salt [7] [µM]	MIC, E. faecalis, L-Salt [7] [µM]	MIC, P. aeruginosa, H-Salt [8] [µM]	MIC, P. aeruginosa, L-Salt [8] [µM]	MIC, E. coli, H-Salt [9] [µM]	MIC, E. coli, L-Salt [9] [µM]
CC(C)C[C@H](NC(=O)[C@@H](N)CCCNC(=N)N)C(=O)N[C@@H](Cc1ccc(O)cc1)C(=O)N[C@@H](CCCNC(=N)N)C(=O)NCCCC[C@H](NC(=O)[C@H](CCCCNC(=O)[C@H](CCCNC(=N)N)NC(=O)[C@H](Cc1ccc(O)cc1)NC(=O)[C@H](CC(C)C)NC(=O)[C@@H](N)CCCNC(=N)N)NC(=O)[C@H](CCCCNC(=O)[C@H](CCCNC(=N)N)NC(=O)[C@H](Cc1ccc(O)cc1)NC(=O)[C@H](CC(C)C)NC(=O)[C@@H](N)CCCNC(=N)N)NC(=O)[C@H](CCCCNC(=O)[C@H](CCCNC(=N)N)NC(=O)[C@H](Cc1ccc(O)cc1)NC(=O)[C@H](CC(C)C)NC(=O)[C@@H](N)CCCNC(=N)N)NC(=O)[C@H](CCCNC(=N)N)NC(=O)[C@H](Cc1ccc(O)cc1)NC(=O)[C@H](CC(C)C)NC(=O)[C@@H](N)CCCNC(=N)N)C(N)=O [K5R] (HELM PEPTIDE1{R.L.Y.R.K.K.K.K.[am]}|PEPTIDE2{R.L.Y.R}|PEPTIDE3{R.L.Y.R}|PEPTIDE4{R.L.Y.R}|PEPTIDE5{R.L.Y.R}$PEPTIDE1,PEPTIDE2,8:R3-4:R2|PEPTIDE1,PEPTIDE3,7:R3-4:R2|PEPTIDE1,PEPTIDE4,6:R3-4:R2|PEPTIDE1,PEPTIDE5,5:R3-4:R2$$$V2.0; N-terminus assumed)	0.8	0.6	0.9	0.9	1.3	1.1	0.7	0.8	0.8	0.7	0.7	1.2	1.3	0.9	1.4	1.3	0.8	0.8	0.6	0.7
CC(=O)N[C@@H](CCCNC(=O)[C@H](CCCNC(=N)N)NC(=O)[C@H](Cc1ccc(O)cc1)NC(=O)[C@H](CC(C)C)NC(=O)[C@@H](N)CCCNC(=N)N)C(=O)N[C@@H](CCCNC(=O)[C@H](CCCNC(=N)N)NC(=O)[C@H](Cc1ccc(O)cc1)NC(=O)[C@H](CC(C)C)NC(=O)[C@@H](N)CCCNC(=N)N)C(=O)N[C@@H](CCCNC(=O)[C@H](CCCNC(=N)N)NC(=O)[C@H](Cc1ccc(O)cc1)NC(=O)[C@H](CC(C)C)NC(=O)[C@@H](N)CCCNC(=N)N)C(N)=O [O3R]	16.4	5.4	1.4	0.8	1.9	2.1	93.4	9.6	18.2	6.4	24.6	6.9	1.7	1.7	> 500	49.8	8.9	1.9	8.7	0.9
CC(C)C[C@H](NC(=O)[C@@H](N)CCCNC(=N)N)C(=O)N[C@@H](Cc1ccc(O)cc1)C(=O)N[C@@H](CCCNC(=N)N)C(=O)N[C@@H](CCCCNC(=O)[C@H](CCCCNC(=O)[C@H](CCCCNC(=O)OCC1c2ccccc2-c2ccccc21)NC(=O)[C@H](CCCNC(=N)N)NC(=O)[C@H](Cc1ccc(O)cc1)NC(=O)[C@H](CC(C)C)NC(=O)[C@@H](N)CCCNC(=N)N)NC(=O)[C@H](CCCNC(=N)N)NC(=O)[C@H](Cc1ccc(O)cc1)NC(=O)[C@H](CC(C)C)NC(=O)[C@@H](N)CCCNC(=N)N)C(N)=O [iK3R] (I: H-RLYRK-NH2 / II: H-RLYRK(Fmoc) / III: H-RLYRK; amide I:5-III:C, II:C-III:5)	0.7	0.6	0.7	0.8	1.2	0.8	0.7	0.5	0.8	0.7	0.5	0.7	0.7	0.7	0.8	0.5	0.8	0.7	0.4	0.6
CC(C)C[C@H](NC(=O)[C@@H](N)CCCNC(=N)N)C(=O)N[C@@H](Cc1ccc(O)cc1)C(=O)N[C@@H](CCCNC(=N)N)C(=O)NCCCC[C@H](NC(=O)[C@H](CCCNC(=N)N)NC(=O)[C@H](Cc1ccc(O)cc1)NC(=O)[C@H](CC(C)C)NC(=O)[C@@H](N)CCCNC(=N)N)C(=O)NCCCC[C@H](NC(=O)[C@H](CCCNC(=N)N)NC(=O)[C@H](Cc1ccc(O)cc1)NC(=O)[C@H](CC(C)C)NC(=O)[C@@H](N)CCCNC(=N)N)C(=O)NCCCC[C@H](NC(=O)[C@H](CCCNC(=N)N)NC(=O)[C@H](Cc1ccc(O)cc1)NC(=O)[C@H](CC(C)C)NC(=O)[C@@H](N)CCCNC(=N)N)C(=O)NCCCC[C@H](NC(=O)[C@H](CCCNC(=N)N)NC(=O)[C@H](Cc1ccc(O)cc1)NC(=O)[C@H](CC(C)C)NC(=O)[C@@H](N)CCCNC(=N)N)C(N)=O [iK5R] (HELM PEPTIDE1{R.L.Y.R.K}|PEPTIDE2{R.L.Y.R}|PEPTIDE3{R.L.Y.R.K}|PEPTIDE4{R.L.Y.R.K}|PEPTIDE5{R.L.Y.R.K.[am]}$PEPTIDE1,PEPTIDE2,5:R3-4:R2|PEPTIDE1,PEPTIDE3,5:R2-5:R3|PEPTIDE3,PEPTIDE4,5:R2-5:R3|PEPTIDE4,PEPTIDE5,5:R2-5:R3$$$V2.0; N-terminus assumed)	0.6	1.0	0.7	0.6	0.9	1.2	0.7	0.8	0.8	0.8	0.7	0.6	1.3	0.5	1.6	0.8	0.8	0.6	0.5	0.5
